# Data as given in patent US20250346550A1, “METHODS OF MODULATING ENDONUCLEASE G USING RESVERATROL AND ITS DERIVATIVES” (THE REGENTS OF THE UNIVERSITY OF COLORADO A BODY CORPORATE, priority 2022, published 2025).
# What was measured:
# [1] = tested on: paternal uaDf5 mtDNA in cross-fertilized embryos; test: PCR-based PME assay (paternal uaDf5 mtDNA); format: in vivo, C. elegans; conditions: 50 μM; mock: detected up to 64-cell stage embryos
# Text: FIG. 7. Effects of different dosages of resveratrol isomers on PME. a, b, The effects of different dosages of cis-resveratrol (a) and trans-resveratrol (b) on PME. The numbers of MTR-stained paternal mitochondrial clusters in 64-cell embryos (a) or 16-cell embryos (b) from mating of MTR-stained N2 males with N2 hermaphrodites in the presence of the indicated concentrations of resveratrol isomers were scored. […] A single cross-fertilized embryo or larva (MTR- or GFP-positive) at the indicated stage was analyzed by PCR. uaDf5/+ and N2 hermaphrodites were controls.
# We confirmed these findings using a polymerase chain reaction (PCR)-based PME assay, which monitors the fate of paternal mtDNA in fertilized eggs from males carrying a 3053 bp mtDNA deletion allele (uaDf5) in a heteroplasmic mixture with wild-type mtDNA (FIG. 7c). In mating between N2 hermaphrodites and uaDf5/+ males treated with the mock control, PCR products derived specifically from paternal uaDf5 mtDNA were detected only in early stage cross-fertilized embryos, up to 64-cell stage embryos (FIG. 2d).
# [2] = tested on: cross-fertilized embryos with persistent uaDf5 paternal mitochondria (loss of lgg-1); test: embryonic lethality caused by persistent uaDf5 paternal mitochondria; format: in vivo, C. elegans; conditions: 100 μM, males pretreated eight hours before mating, 25° C.
# Description: FIG. 10. Trans-resveratrol reduces embryonic lethality through enhancing removal of mutant paternal mitochondria. The embryonic lethality rate was scored in cross-fertilized embryos from crosses of the indicated genotypes. Males were pretreated with either 0.5% ethanol (Mock) or […] trans-resveratrol (trans) for eight hours before mating. All males carried smIs42 to assist identification of zygotes. Data are means SEM; n>200 embryos per cross at 25° C. n.s., no significant difference; *P<0.05 using two-sided, unpaired t-test.
# Several studies have shown that abnormal persistence of paternal mitochondria is detrimental to normal development and causes various deficiencies, including neurological and muscular defects, which lack treatment options.
SMILES,fate of paternal uaDf5 mtDNA [1],embryonic lethality caused by uaDf5 paternal mitochondria [2]
Oc1ccc(/C=C\c2cc(O)cc(O)c2)cc1 [cis-resveratrol],persistence of uaDf5 mtDNA to the late 4-fold embryos,–
"Oc1ccc(/C=C/c2cc(O)cc(O)c2)cc1 [trans-resveratrol, 3,5,4′-trihydroxy-trans-stilbene]",accelerated degradation of uaDf5 mtDNA,significantly reduced embryonic lethality
